pIC50: −log10 of the molar value.
What was measured:
PARP-1 = PARP-1 enzyme; cited from earlier work
[1] = nonacidic environments; cited from earlier work
[2] = system: chemoresistant tumor cells; design: method as in PMID 17699724; settings: in vitro and in xenograft models; cited from earlier work
[3] = in vivo; cited from earlier work
human bone marrow cells = system: human bone marrow cells; design: method as in PMID 17699724; settings: CFU-GM colony-forming assay; cited from earlier work
[4] = Plasma pharmacokinetics of CEP-8983 after oral CEP-9722; assay type: in vivo, human; design: AUC0–∞, mean ± SD / AUC0–t, mean ± SD / AUCτ, mean ± SD: concentration or dose not given beside the values
Description: Pharmacokinetic serum samples were collected on day 1 of cycle 1 pre-dose and 0.5, 1, 2, 3, 4, 6, 8, 10, and 24 h post-dose; and on day 5 of cycle 1 and cycle 2 pre-dose, and 0.5, 1, 2, 3, 4, 6, 8, 10, 24, and 48 h post-dose. Urine samples were obtained on day 1 of cycle 1 during 4 intervals in the 24 h following study drug administration. Pharmacokinetic parameters (area under the plasma drug concentration–time curve from time 0 to infinity [AUC0–∞], AUC from time 0 to the time of the last measurable drug concentration [AUC0–t], AUC for 1 dosing interval [AUCτ] following multiple doses, maximum observed plasma concentration [C max], and time to maximum observed plasma concentration [T max]) were summarized at each visit (day 1 of cycle 1 and day 5 of cycles 1 and 2) using descriptive statistics.

PARP-2 = PARP-2 enzyme; cited from earlier work
[5] = day 5 of cycle 1, nonsmoker without medication affecting gastric pH, n = 13
[6] = day 5 of cycle 1, smoker and/or with medication affecting gastric pH, n = 11

## COc1cccc2[nH]c3c4c(c5c(c3c12)C(=O)NC5=O)CCC4 [CEP-8983]
PARP-1
  pIC50: 7.70
[1]
  solubility: poorly soluble
[2]
  sensitivity of chemoresistant tumor cells to temozolomide: increased the sensitivity
[3]
  oral bioavailability: low oral bioavailability
Human bone marrow cells
  myelotoxicity of temozolomide: only modest increases
[4]; day 1 of cycle 1, nonsmokers not receiving gastric pH-modifying medications
  mean AUC0–t: 4,960.6 ng h/mL
[4]; day 1 of cycle 1, smokers and/or patients receiving gastric pH-modifying medications
  mean AUC0–t: 2,747.3 ng h/mL
[4]; [5]
  AUC0–t, mean ± SD: 3,138.0 ± 2,160.74 ng h/mL
  AUC0–∞, mean ± SD: 4,111.0 ± 4,126.79 ng h/mL
  AUCτ, mean ± SD: 3,851.1 ± 3,578.78 ng h/mL
  C max, mean ± SD: 0.6075 ± 0.31987 µg/mL
  CL/F, mean ± SD: 20.4 ± 25.80 L/h
  Percentage extrapolation, mean ± SD: 3.7 ± 3.82%
  V/F, mean ± SD: 58.1 ± 60.23 L
  t max, mean ± SD: 36 ± 39.6 min
  λ z, mean ± SD: 0.1 ± 0.13 h⁻¹
[4]; [6]
  AUC0–t, mean ± SD: 1,339.3 ± 2,127.07 ng h/mL
  AUC0–∞, mean ± SD: 2,838.9 ± 5,740.57 ng h/mL
  AUCτ, mean ± SD: 2,304.7 ± 4,161.29 ng h/mL
  C max, mean ± SD: 0.3525 ± 0.38057 µg/mL
  CL/F, mean ± SD: 67.1 ± 62.14 L/h
  Percentage extrapolation, mean ± SD: 5.5 ± 8.29%
  V/F, mean ± SD: 102.3 ± 100.76 L
  t 1/2, mean ± SD: 42 ± 46.2 min
  t max, mean ± SD: 36 ± 39.6 min
  λ z, mean ± SD: 0.2 ± 0.21 h⁻¹
[4]; day 5 of cycle 2, nonsmokers not receiving gastric pH-modifying medications
  mean AUC0–t: 2,574.4 ng h/mL
[4]; day 5 of cycle 2, smokers and/or patients receiving gastric pH-modifying medications
  mean AUC0–t: 1,457.9 ng h/mL
PARP-2
  pIC50: 8.22
